Data taken from PubChem BioAssay (NCI).
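Five concentrations, 48 hours, 96-well plates. Here, GI50 denotes the concentration required for 50% inhibition of growth. TGI: total growth inhibition.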

How the values were obtained:
Assay in all cases: DTP human tumour cell line panel, 48 h
[1] = system: MCF7 breast
[2] = system: NCI-H460 lung
[3] = system: OVCAR-5 ovarian
[4] = system: COLO 205 colon
[5] = system: TK-10 renal
[6] = system: IGROV1 ovarian
[7] = system: RXF 393 renal
[8] = system: A549 NSCLC
[9] = system: SNB-75 CNS
[10] = system: SW-620 colon
[11] = system: U251 CNS
[12] = system: K-562 leukemia
[13] = system: SF-539 CNS
[14] = system: LOX IMVI melanoma
[15] = system: HOP-92 NSCLC
[16] = system: SK-MEL-5 melanoma
[17] = system: NCI-H522 lung
[18] = system: HCT-15 colon
[19] = system: EKVX NSCLC
[20] = system: HL-60(TB) leukemia
[21] = system: MDA-MB-435
[22] = system: RPMI-8226 leukemia
[23] = system: SK-MEL-28 melanoma
[24] = system: HCT-116 colon
[25] = system: SR leukemia
[26] = system: MDA-MB-231 breast
[27] = system: PC-3 prostate
[28] = system: UO-31 renal
[29] = system: MALME-3M melanoma
[30] = system: OVCAR-8 ovarian
[31] = system: M14 melanoma
[32] = system: SK-OV-3 ovarian
[33] = system: CAKI-1 renal
[34] = system: HT29 colon
[35] = system: DU-145 prostate
[36] = system: KM12 colon
[37] = system: SF-295 CNS
[38] = system: ACHN renal
[39] = system: CCRF-CEM leukemia
[40] = system: SN12C renal
[41] = system: HOP-62 NSCLC
[42] = system: HCC-2998 colon
[43] = system: NCI-H226 lung
[44] = system: SK-MEL-2 melanoma
[45] = system: UACC-257 melanoma
[46] = system: OVCAR-4 ovarian
[47] = system: 786-0 renal
[48] = system: UACC-62 melanoma
[49] = system: HS 578T breast
[50] = system: T-47D breast
[51] = system: SNB-19 CNS
[52] = system: BT-549 breast
[53] = system: A498 renal
[54] = system: SF-268 CNS

Which GI50 [1] does the source give for `COc1ccc2c(c1)Oc1nc(N)c(C#N)c(N)c1C2Sc1ccc(C)cc1` (stereo not drawn) here?
The GI50 was 1260 nM.

And the TGI [1]?
The TGI was 2900 nM.

What about the GI50 [2] of the same compound?
The GI50 was 1980 nM.

And the TGI [2]?
Its TGI is 3900 nM.

What about the GI50 [3] of the same compound?
Its GI50 is 1780 nM.

And the TGI [3]?
The TGI was 3240 nM.

And the GI50 [4]?
Its GI50 is 1900 nM.

And the TGI [4]?
Its TGI is 3600 nM.

What about the GI50 [5] of the same compound?
The GI50 was 1830 nM.

And the TGI [5]?
The TGI was 3220 nM.

What about the GI50 [6] of the same compound?
Its GI50 is 1200 nM.

What about the TGI [6] of the same compound?
Its TGI is 2490 nM.

And the GI50 [7]?
The GI50 was 1480 nM.

And the TGI [7]?
The TGI was 2810 nM.

What about the GI50 [8] of the same compound?
The GI50 was 1770 nM.

What about the TGI [8] of the same compound?
Its TGI is 3330 nM.

And the GI50 [9]?
The GI50 was 1400 nM.

And the TGI [9]?
Its TGI is 2700 nM.

And the GI50 [10]?
Its GI50 is 1770 nM.

And the TGI [10]?
Its TGI is 3380 nM.

What about the GI50 [11] of the same compound?
The GI50 was 1550 nM.

And the TGI [11]?
The TGI was 2960 nM.

And the GI50 [12]?
Its GI50 is 584 nM.

And the TGI [12]?
Its TGI is > 100000 nM.

And the GI50 [13]?
The GI50 was 1610 nM.

And the TGI [13]?
Its TGI is 2980 nM.

And the GI50 [14]?
Its GI50 is 1410 nM.

And the TGI [14]?
The TGI was 2840 nM.

What about the GI50 [15] of the same compound?
Its GI50 is 1640 nM.

And the TGI [15]?
The TGI was 3010 nM.

And the GI50 [16]?
The GI50 was 1790 nM.

And the TGI [16]?
The TGI was 3190 nM.

And the GI50 [17]?
The GI50 was 1530 nM.

And the TGI [17]?
The TGI was 2870 nM.

What about the GI50 [18] of the same compound?
The GI50 was 1330 nM.

And the TGI [18]?
Its TGI is 2830 nM.

What about the GI50 [19] of the same compound?
Its GI50 is 1720 nM.

What about the TGI [19] of the same compound?
Its TGI is 3280 nM.

And the GI50 [20]?
The GI50 was 1720 nM.

What about the TGI [20] of the same compound?
Its TGI is 5260 nM.

And the GI50 [21]?
Its GI50 is 1670 nM.

What about the TGI [21] of the same compound?
Its TGI is 3090 nM.

And the GI50 [22]?
The GI50 was 2610 nM.

And the TGI [22]?
Its TGI is 7270 nM.

And the GI50 [23]?
Its GI50 is 1730 nM.

What about the TGI [23] of the same compound?
The TGI was 3120 nM.

And the GI50 [24]?
The GI50 was 1750 nM.

And the TGI [24]?
Its TGI is 3310 nM.

What about the GI50 [25] of the same compound?
The GI50 was 313 nM.

What about the TGI [25] of the same compound?
The TGI was > 100000 nM.

What about the GI50 [26] of the same compound?
The GI50 was 1710 nM.

What about the TGI [26] of the same compound?
Its TGI is 3130 nM.

What about the GI50 [27] of the same compound?
Its GI50 is 1620 nM.

What about the TGI [27] of the same compound?
The TGI was 3040 nM.

What about the GI50 [28] of the same compound?
The GI50 was 1180 nM.

And the TGI [28]?
The TGI was 2420 nM.

And the GI50 [29]?
Its GI50 is 1670 nM.

And the TGI [29]?
Its TGI is 3120 nM.

And the GI50 [30]?
Its GI50 is 1730 nM.

And the TGI [30]?
Its TGI is 3140 nM.

What about the GI50 [31] of the same compound?
Its GI50 is 1850 nM.

What about the TGI [31] of the same compound?
The TGI was 3360 nM.

What about the GI50 [32] of the same compound?
Its GI50 is 1900 nM.

And the TGI [32]?
Its TGI is 3390 nM.

And the GI50 [33]?
Its GI50 is 1340 nM.

And the TGI [33]?
Its TGI is 2630 nM.

And the GI50 [34]?
The GI50 was 1800 nM.

And the TGI [34]?
The TGI was 3300 nM.

And the GI50 [35]?
The GI50 was 1870 nM.

And the TGI [35]?
Its TGI is 3340 nM.

What about the GI50 [36] of the same compound?
The GI50 was 1740 nM.

And the TGI [36]?
Its TGI is 3150 nM.

What about the GI50 [37] of the same compound?
The GI50 was 1690 nM.

And the TGI [37]?
The TGI was 3080 nM.

And the GI50 [38]?
The GI50 was 1660 nM.

What about the TGI [38] of the same compound?
Its TGI is 3020 nM.

What about the GI50 [39] of the same compound?
Its GI50 is 421 nM.

What about the TGI [39] of the same compound?
The TGI was > 100000 nM.

What about the GI50 [40] of the same compound?
Its GI50 is 1590 nM.

And the TGI [40]?
The TGI was 2940 nM.

And the GI50 [41]?
The GI50 was 1820 nM.

And the TGI [41]?
The TGI was 3310 nM.

What about the GI50 [42] of the same compound?
The GI50 was 1750 nM.

And the TGI [42]?
Its TGI is 3260 nM.

What about the GI50 [43] of the same compound?
The GI50 was 1970 nM.

What about the TGI [43] of the same compound?
Its TGI is 4590 nM.

And the GI50 [44]?
The GI50 was 1590 nM.

What about the TGI [44] of the same compound?
The TGI was 2940 nM.

What about the GI50 [45] of the same compound?
The GI50 was 1710 nM.

And the TGI [45]?
The TGI was 3110 nM.

And the GI50 [46]?
The GI50 was 1730 nM.

What about the TGI [46] of the same compound?
The TGI was 3130 nM.

What about the GI50 [47] of the same compound?
Its GI50 is 1700 nM.

What about the TGI [47] of the same compound?
Its TGI is 3130 nM.

And the GI50 [48]?
Its GI50 is 1660 nM.

And the TGI [48]?
The TGI was 3080 nM.

What about the GI50 [49] of the same compound?
The GI50 was 2410 nM.

What about the TGI [49] of the same compound?
The TGI was 5830 nM.

And the GI50 [50]?
The GI50 was 1220 nM.

What about the TGI [50] of the same compound?
Its TGI is 3910 nM.

What about the GI50 [51] of the same compound?
Its GI50 is 1720 nM.

And the TGI [51]?
Its TGI is 3120 nM.

And the GI50 [52]?
The GI50 was 1290 nM.

What about the TGI [52] of the same compound?
Its TGI is 2580 nM.

And the GI50 [53]?
The GI50 was 1480 nM.

What about the TGI [53] of the same compound?
The TGI was 2800 nM.

And the GI50 [54]?
The GI50 was 1590 nM.

What about the TGI [54] of the same compound?
Its TGI is 3040 nM.
